Laboratory results taken from patent US20230250096A1, “SUBSTITUTED PHENYL-1H-PYRROLO[2,3-c] PYRIDINE DERIVATIVES” (Janssen Pharmaceutica NV, priority 2021, published 2023).
Read-outs that look alike come from different tables or passages of the source.

How the values were obtained:
Format in all cases: cell-based, human
KO-52 cells = test: Proliferation assay (spheroid confluence, 8 days), KO-52 control cell line; conditions: read-out: spheroid assay_KO-52 IC50
Outline: (§1)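 Cells grown as spheroids in ultra-low attachment round-bottom wells (200 MOLM14 or OCI-AML3, 300 KO-52 per well) with compound dilutions at 0.3% DMSO, 8 days, 37° C. Confluence from live-cell imaging at day 8; % effect normalized to DMSO and high-dose reference/staurosporin, absolute IC50 from variable-slope fit.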

MOLM14 cells = test: Proliferation assay (spheroid confluence, 8 days), MOLM14; conditions: read-out: spheroid assay_MOLM14 IC50
Outline: as §1

MEIS1 mRNA expression = MEIS1 mRNA expression assay (Quantigene Singleplex) in MOLM14 cells; conditions: 48 hours incubation
Outline: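 MOLM14 cells, 3,750/well, exposed to increasing compound concentrations for 48 h. MEIS1 mRNA measured by QuantiGene Singleplex branched-DNA hybridization (lysis 45 min, hybridization 18–22 h, both 55 °C), normalized to RPL28. IC50 fitted to background-corrected fold change versus DMSO.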

Compound	IC50 (MOLM14 cells; Homo sapiens, MOLM-14, MOLM14) [nM]	IC50 (MEIS1 mRNA expression; Homo sapiens, MOLM-14, 48 h) [nM]	IC50 (MOLM14 cells; MOLM14) [nM]	IC50 (MEIS1 mRNA expression) [nM]	IC50 (KO-52 cells; Homo sapiens) [µM]	IC50 (KO-52 cells) [µM]
Cc1cncc2c1c(CC1CN(CC3CCOCC3)C1)cn2-c1ccc(F)cc1C(=O)N1CC2CC1CO2 (stereo not drawn) [Compound 264]	20	25			13.5	
CC(=O)N1CCN(CCCC(C(C)C)N2CC[C@@H](Cc3cn(-c4ccc(F)cc4C(=O)N(C)C(C)C)c4cncc(C)c34)C2)CC1 (mixture of isomers) [Compound 8]	11	23			2.4	
CC(=O)N1C[C@@H]2CN([C@H]3C[C@@H](C(C(C)C)N4CC[C@H](Cc5cn(-c6ccc(F)cc6C(=O)N(C)C(C)C)c6cncc(C)c56)C4)C3)C[C@H]2C1 (mixture of isomers) [Compound 21]	< 1.8	< 2.3			2	
CC(=O)N1CC2CC(C1)C2N1CC[C@H](Cc2cn(-c3ccc(F)cc3C(=O)N(C)C(C)C)c3cncc(C)c23)C1 (stereo partly drawn) [Compound 208]	224	281			> 15	
CC(=O)N1CCC(CN2CC[C@@H](Cc3cn(-c4ccc(F)cc4C(=O)N4CCC[C@H]4C)c4cncc(C)c34)C2)CC1 [Compound 315]	10	37			2.4	
Cc1cncc2c1c(CC1CCN(CC3CCN(C(=O)[C@@H](C)O)CC3)C1)cn2-c1ccc(F)cc1C(=O)N(C)C(C)C (single isomer, unassigned) [Compound 85]	12	22			2.2	
Cc1cncc2c1c(C[C@@H]1CCN(C[C@@H]3CCOC3)C1)cn2-c1ccc(F)cc1C(=O)N(C)C(C)C (single isomer, unassigned) [Compound 190b]	46	65			4.9	
CC(=O)N1CCC(C)(CN2CC(Cc3cn(-c4ccc(F)cc4C(=O)N(C)C(C)C)c4cncc(C)c34)C2)CC1 [Compound 84]	63	131			4.3	
Cc1cncc2c1c(C[C@@H]1CCN(CC3CCN(C(N)=O)CC3)C1)cn2-c1ccc(F)cc1C(=O)N(C)C(C)C [Compound 207]	16	29			14.3	
CN=S(=O)(c1cc(F)ccc1-n1cc(CC2CCN(CC3CCOCC3)C2)c2c(C)cncc21)C(C)C (single isomer, unassigned) [Compound 77d]			197	~260		> 15
CC(=O)N1CCN(CCCC(C(C)C)N2CCC(Cc3cn(-c4ccc(F)cc4C(=O)N(C)C(C)C)c4cncc(C)c34)C2)CC1 (single isomer, unassigned) [Compound 9a]	2	6			0.6	
CC(=O)N1CCC(CN2CC[C@@H](Cc3cn(-c4ccc(F)cc4C(=O)N4CCC[C@@H]4C)c4cncc(C)c34)C2)CC1 [Compound 319]	139	240			> 15	
Cc1cncc2c1c(CC1CN(CC3CCOCC3)C1)cn2-c1ccc(F)cc1C(=O)N1CCCC1CO (stereo not drawn) [Compound 268]	88	37			> 15	
Cc1cncc2c1c(C[C@@H]1CCN(CC3CCNC(=O)CC3)C1)cn2-c1ccc(F)cc1C(=O)N(C)C(C)C (mixture of isomers) [Compound 169]	16	71			10	
Cc1cncc2c1c(CC1CN(C[C@H]3CCOC3)C1)cn2-c1ccc(F)cc1C(=O)N(C)C(C)C (single isomer, unassigned) [Compound 191a]	7	39			4.6	
COC(=O)[C@H]1CC[C@@H](CN2CC[C@@H](Cc3cn(-c4ccc(F)cc4C(=O)N(C)C(C)C)c4cncc(C)c34)C2)CC1 [Compound 153]	35	77			7.9	

More lines, main results first:

IC50 (MOLM14 cells; Homo sapiens, MOLM-14, MOLM14) [nM]	IC50 (MEIS1 mRNA expression; Homo sapiens, MOLM-14, 48 h) [nM]	IC50 (MOLM14 cells; MOLM14) [nM]	IC50 (MEIS1 mRNA expression) [nM]	Compound	IC50 (KO-52 cells; Homo sapiens) [µM]	IC50 (KO-52 cells) [µM]
44	111			Cc1cncc2c1c(C[C@H]1CCN([C@H](C)C3CCOCC3)C1)cn2-c1ccc(F)cc1[S@](=N)(=O)C(C)C (single isomer, unassigned) [Compound 181a]	4.1	
		35	26	CC(=O)N1CCC(CN2CC[C@@H](Cc3cn(-c4ccc(F)cc4C(=O)N4CCC5CC54)c4cncc(C)c34)C2)CC1 (single isomer, unassigned) [Compound 311b]		> 15
11	16			Cc1cncc2c1c(CC1CCN(CC3CCN(C(=O)C(C)(C)O)CC3)C1)cn2-c1ccc(F)cc1C(=O)N(C)C(C)C (single isomer, unassigned) [Compound 125]	7	
		25	31	Cc1cncc2c1c(C[C@@H]1CCN(CC3CCC(O)CC3)C1)cn2-c1ccc(F)cc1C(=O)N(C)C(C)C (single isomer, unassigned) [Compound 205b]		3.2
275	254			Cc1cncc2c1c(CC1CN(CC3CCNC(=O)CC3)C1)cn2-c1ccc(F)cc1C(=O)N(C)C(C)C (stereo not drawn) [Compound 104]	> 15	
146	238			CN=S(=O)(c1cc(F)ccc1-n1cc(CC2CCN(CC3CCN(C(C)=O)CC3)C2)c2c(C)cncc21)C(C)C (stereo not drawn) [Compound 128]	7.9	
13	71			CCC([C@H]1C[C@@H](N2CCN(C(C)=O)CC2)C1)N1CC[C@@H](Cc2cn(-c3ccc(F)cc3C(=O)N(C)C(C)C)c3cncc(C)c23)C1 (mixture of isomers) [Compound 24]	8.5	
		52	115	Cc1cncc2c1c(CC1CCN(CC3CCC(=O)N(C)CC3)C1)cn2-c1ccc(F)cc1C(=O)N(C)C(C)C (single isomer, unassigned) [Compound 184b]		> 15
1	3			COCCN(C)CCCC(C(C)C)N1CC[C@H](Cc2cn(-c3ccc(F)cc3C(=O)N(C)C(C)C)c3cncc(C)c23)C1 (single isomer, unassigned) [Compound 2]	> 15	
3	< 3.3			CC(=O)N1C[C@@H]2CN(CCC[C@H](C(C)C)N3CC[C@H](Cc4cn(-c5ccc(F)cc5C(=O)N(C)C(C)C)c5cncc(Cl)c45)C3)C[C@H]2C1 (single isomer, unassigned) [Compound 19a]	> 15	
23	44			CNC(=O)[C@H]1CC[C@@H](CN2CC[C@@H](Cc3cn(-c4ccc(F)cc4C(=O)N(C)C(C)C)c4cncc(C)c34)C2)CC1 [Compound 185]	11	
255	314			CC(=O)N1CCC(CCN2CC[C@@H](Cc3cn(-c4ccc(F)cc4C(=O)N(C)C(C)C)c4cncc(C)c34)C2)CC1 [Compound 189]	14.4	
12	17			Cc1cncc2c1c(CC1CN(CC3CCOCC3)C1)cn2-c1ccc(F)cc1C(=O)N1CCC[C@H]1C [Compound 279]	5.1	
15	15			Cc1cncc2c1c(CC1CN(CC3CCOCC3)C1)cn2-c1ccc(F)cc1C(=O)N1CCC2CC21 (stereo not drawn) [Compound 262]	2.9	
4	10			COCCN(C)CCCC(C(C)C)N1CC[C@@H](Cc2cn(-c3ccc(F)cc3C(=O)N(C)C(C)C)c3cncc(Cl)c23)C1 (stereo partly drawn) [Compound 3]	1.1	
11	11			Cc1cncc2c1c(CC1CN(CC3CCC(O)CC3)C1)cn2-c1ccc(F)cc1C(=O)N(C)C(C)C (stereo not drawn) [Compound 144]	6.5	
58			77	CC(=O)N1CCC(N2CC[C@H](Cc3cn(-c4ccc(F)cc4C(=O)N(C)C(C)C)c4cncc(C)c34)C2)CC1 (single isomer, unassigned) [Compound 81]	4	
13	24			CC(=O)N1CCC([C@H](CO)N2CC[C@@H](Cc3cn(-c4ccc(F)cc4C(=O)N(C)C(C)C)c4cncc(C)c34)C2)CC1 (single isomer, unassigned) [Compound 206a]	6.6	
